The results in this text go back to patent US9700545B2 (Salix Pharmaceuticals, Ltd, priority 2008, dated 2017).

Common to all, as to format: physicochemical
A short description of data set [1]: Automated moisture sorption/desorption (MB / DVS). The settings on record: for form by XRPD after moisture sorption/desorption: sorption from 5% RH to 95% RH, desorption from 95% RH to 5% RH; for hygroscopicity: result in words; for XRPD following DVS: line after DVS. Here is the method: Based on the data, relative humidity stressing studies of the two amorphous materials at 40° C./75% RH are recommended. Moisture sorption/desorption data were collected on a VTI SGA-100 Vapor Sorption Analyzer. Sorption and desorption data were collected over a range of 5% to 95% relative humidity (RH) at 10% RH intervals under a nitrogen purge. Samples were not dried prior to analysis. Equilibrium criteria used for analysis were less than 0.0100% weight change in 5 minutes, with a maximum equilibration time of 3 hours if the weight criterion was not met. Data were not corrected for the initial moisture content of the samples. NaCl and PVP were used as calibration standards.

The nature of data set [2]: Milling experiments on amorphous materials, form by XRPD. To be noted: 10 min. at 30 Hz, scraped sides. The protocol: (§1) Vapor stressing experiments were done on amorphous material from two preparations: lyophilization from p-dioxane:water 1:1 and crash precipitation from ethyl acetate with heptane. […] The majority of the stressed samples appeared as clear red solutions after 6 days. Those solutions were placed in vials of antisolvent for vapor diffusion. Dry and wet milling experiments were conducted on amorphous materials from the two preparations mentioned above. Amorphous materials were recovered from the dry milling experiments.
A solid sample of rifaximin was charged to a milling container with a milling ball. […] Solids were scraped from the sides of the vial after each interval.

Data set [3] in a line: Vapor stress / vapor diffusion stressing of amorphous materials, form by XRPD. The settings on record: methanol and tetrahydrofuran, both with water as antisolvent. Here is the method: as §1

In the case of `CO[C@H]1/C=C/O[C@@]2(C)Oc3c(C)c(O)c4c(O)c(c5c(nc6cc(C)ccn65)c4c3C2=O)NC(=O)/C(C)=C\C=C\[C@H](C)[C@H](O)[C@@H](C)[C@@H](O)[C@@H](C)[C@H](OC(C)=O)[C@@H]1C` [α dry], in data set [1], the “form by XRPD after moisture sorption/desorption” value is on record as “α dry”.

Regarding `CO[C@H]1/C=C/O[C@@]2(C)Oc3c(C)c(O)c4c(O)c(c5c(nc6cc(C)ccn65)c4c3C2=O)NC(=O)/C(C)=C\C=C\[C@H](C)[C@H](O)[C@@H](C)[C@@H](O)[C@@H](C)[C@H](OC(C)=O)[C@@H]1C` [lyophilized amorphous rifaximin], in data set [1], the hygroscopicity result is on record as “moderately hygroscopic” and the “form by XRPD after moisture sorption/desorption” value is “Crystallization was not observed”. Further, the “XRPD Result after dry milling” value in data set [2] was “amorphous”.

For `CO[C@H]1/C=C/O[C@@]2(C)Oc3c(C)c(O)c4c(O)c(c5c(nc6cc(C)ccn65)c4c3C2=O)NC(=O)/C(C)=C\C=C\[C@H](C)[C@H](O)[C@@H](C)[C@@H](O)[C@@H](C)[C@H](OC(C)=O)[C@@H]1C` [crash amorphous rifaximin], in data set [1], the hygroscopicity entry was “moderately hygroscopic” and the “form by XRPD after moisture sorption/desorption” value is “Crystallization was not observed”. Moreover, the “XRPD Result after dry milling” value in data set [2] is “amorphous”.

As for `CO[C@H]1/C=C/O[C@@]2(C)Oc3c(C)c(O)c4c(O)c(c5c(nc6cc(C)ccn65)c4c3C2=O)NC(=O)/C(C)=C\C=C\[C@H](C)[C@H](O)[C@@H](C)[C@@H](O)[C@@H](C)[C@H](OC(C)=O)[C@@H]1C` [Amorphous rifaximin], the “wt loss upon equilibration at 5% RH” value in data set [1] (MB, Table 5, milled amorphous) is reported as 0.7% wt loss upon equilibration. Further, the “XRPD following DVS” value in data set [1] (Table 2, first sample block (lyophilization sample)) is “no peaks, possibly amorphous”; in data set [1] (Table 2, second sample block (crash precipitation sample)), “no peaks, possibly amorphous”. Further, the “weight gain under 95% RH” value in data set [1] (amorphous rifaximin made by milling, moisture balance) turned out to be 11.6%. For the same compound, the hygroscopicity entry in data set [1] is “hygroscopic”. Further, the “form by XRPD after moisture sorption/desorption” value in data set [1], in data set [1] (listed as Amorphous) and in data set [1] (listed as Rifaximin Amorphous) was “amorphous” each time. Moreover, the “form obtained in vapor diffusion experiments” value in data set [3] is reported as “Form β”.
